Measurements reported in US11844823B2, “Beta-hairpin peptidomimetic with elastase inhibitory activity and aerosol dosage forms thereof” (POLYPHOR AG, priority 2016, dated 2023).
Non-standard residues stand in square brackets, D forms with d. Residues, ends and D or L forms follow the SMILES beside them. Gly(octyl) = CCCCCCCC[C@H](N)C(=O)O

Biological target: T1, human neutrophil elastase (Homo sapiens, UniProt P08246)
T1 construct: from tissue; host or cells: spontaneous sputum of patients with cystic fibrosis (PBS-soluble fraction)
T1 sequence (P08246 30-247 limits assumed): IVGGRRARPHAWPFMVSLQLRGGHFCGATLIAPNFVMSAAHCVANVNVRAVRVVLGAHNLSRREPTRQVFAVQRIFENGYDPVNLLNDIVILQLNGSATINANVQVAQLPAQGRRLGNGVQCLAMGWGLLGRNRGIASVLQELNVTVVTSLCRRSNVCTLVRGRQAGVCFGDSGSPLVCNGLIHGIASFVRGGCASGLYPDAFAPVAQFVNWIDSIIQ
Experiment: Phase-1b study, active neutrophil elastase in sputum by FRET elastase assay
Type: in vivo
Details: CF patients; response appeared independent of dose; returned to baseline at 24 h
Experimental: The pharmacodynamic effect of ascending single doses of active compound was investigated by evaluation of neutrophil elastase (NE) activity in sputum using FRET (fluorescence resonance energy transfer) assay after PBS aliquotation and freezing.
On the day of screening, if possible, for baseline assessment of NE activity, on Day −1 as soon as possible after the subject's arrival at the study site for baseline assessment of NE activity, on Day 1 in the period of time between 1 h and 3 h after start of inhalation, and in the morning of Day 2, at approx. 24 h after start of inhalation.
For evaluation of NE activity in sputum, at first, the weight of the sputum sample was determined and 8 mL cold phosphate-buffered saline (PBS) per gram purified sputum was added. […]
The NE activity in sputum was evaluated by using a FRET elastase assay adapted from an assay described in Nature Protocols, 2008, 3, 991 (B. Korkmaz, S. Attucci, M. A. Juliano et al.) and validated by MLM Medical Labs GmbH, Mönchengladbach, Germany.
The assay is based on the reaction of human neutrophil elastase with the substrate 2Abz-Ala-Pro-Glu-Glu-Ile-Met-Arg-Arg-Gln-Tyr(3NO2)—OH (GeneCust Europe S.A., Ellange, Luxembourg, #P160301-SY452824). […] The product of the reaction is detected through fluorescence measurement and the initial reaction velocity is determined. […]

CCCCCCCC[C@@H]1NC(=O)[C@@H]2CCCN2C(=O)[C@H]2CCCN2C(=O)[C@H](Cc2ccc(O)cc2)NC(=O)[C@H](CCCCN)NC(=O)[C@H](CCC(N)=O)NC(=O)[C@@H]2CCCN2C(=O)[C@@H]2CCCN2C(=O)[C@H]([C@@H](C)CC)NC(=O)[C@H](CO)NC(=O)[C@H](C)NC(=O)[C@H]([C@@H](C)O)NC(=O)[C@H](CCC(=O)O)NC1=O [cyclo(-OctG-Glu-Thr-Ala-Ser-Ile-Pro-Pro-Gln-Lys-Tyr-^DPro-Pro-)] (cyclo([Gly(octyl)]ETASIPPQKY[dP]P))
mean concentration of active NE in sputum after single-dose inhalation: strongly decreased
